Measured values from patent US4588720A, “Imidazo[1,2-a]pyrimidines” (Roussel Uclaf, priority 1982, dated 1986).

Experiments:
benzodiazepine receptors = experiment: Affinity for benzodiazepine receptors ([3H] flunitrazepam radioreceptor binding); conditions: inhibition of specific binding of 0.6 nM [^3 H] flunitrazepam, rat forebrain membrane preparations; read-out: Receptor Binding (IC50 nM)
Description: A. Affinity for benzodiazepine receptors
The affinity of the compounds for benzodiazepine receptors was assessed using the radioligand [^3 H] flunitrazepam and modifications of the original radioreceptor binding method of Squares and Braestrup (Nature, Vol. 266 (1977) p. 732). The values given in Table VI are nanomolar concentrations of test compound which inhibited the specific binding of 0.6 nM[^3 H] flunitrazepam to rat forebrain membrain preparations by 50% (IC50 nM).

[1] = Anxiolytic activity, Geller conflict method (Geller and Seifter); type: in vivo; conditions: po; modified Geller and Seifter conflict method; read-out: Geller Conflict (MED mg/kg po), minimum effective dose at which there was an observed increase in shocks above control
Description: Screening for anxiolytic activity was carried out by modifications of the conflict method of Geller and Seifter (Psychopharmacologia, (1960), Volume I, p. 482). The values given in Table VI are the minimum effective doses at which there was an observed increase in shocks above control (MED me/kg po).

| Structure (SMILES) | IC50 (benzodiazepine receptors) | minimal effective dose [1] |
| --- | --- | --- |
| CCc1c(OC)nc2nc(C(=O)c3ccc(C)cc3)cn2c1C [Example 56, (6-ethyl 7-methoxy 5-methylimidazo/1,2-a/pyrimidin-2-yl)(4-methylphenyl)methanone] | 68 nM | 50 mg/kg |
| CCc1c(OC)nc2nc(C(=O)c3ccccc3Cl)cn2c1C [Example 57, (6-ethyl 7-methoxy 5-methylimidazo/1,2-a/pyrimidin-2-yl)(2-chlorophenyl)methanone] | 100 nM | 50 mg/kg |
| CCc1cc(OC)nc2nc(C(=O)c3ccccc3)cn12 [Example 15, (5-Ethyl-7-methoxyimidazo[1,2-a]pyrimidin-2-yl)phenylmethanone] | 295 nM | 2 mg/kg |
